This note sets out measurements from US20240343722A1 (VIFOR (INTERNATIONAL) AG, priority 2021, published 2024).

Molecules are shown by their SMILES.

For the first assay, the target named is T1, ferroportin (Fpn) (Mus musculus, UniProt Q9JHI9).
T1 construct: endogenous in cells; host or cells: J774 mouse macrophage cell line, induced with Fe(III)NTA
T1 sequence (Q9JHI9 1-570): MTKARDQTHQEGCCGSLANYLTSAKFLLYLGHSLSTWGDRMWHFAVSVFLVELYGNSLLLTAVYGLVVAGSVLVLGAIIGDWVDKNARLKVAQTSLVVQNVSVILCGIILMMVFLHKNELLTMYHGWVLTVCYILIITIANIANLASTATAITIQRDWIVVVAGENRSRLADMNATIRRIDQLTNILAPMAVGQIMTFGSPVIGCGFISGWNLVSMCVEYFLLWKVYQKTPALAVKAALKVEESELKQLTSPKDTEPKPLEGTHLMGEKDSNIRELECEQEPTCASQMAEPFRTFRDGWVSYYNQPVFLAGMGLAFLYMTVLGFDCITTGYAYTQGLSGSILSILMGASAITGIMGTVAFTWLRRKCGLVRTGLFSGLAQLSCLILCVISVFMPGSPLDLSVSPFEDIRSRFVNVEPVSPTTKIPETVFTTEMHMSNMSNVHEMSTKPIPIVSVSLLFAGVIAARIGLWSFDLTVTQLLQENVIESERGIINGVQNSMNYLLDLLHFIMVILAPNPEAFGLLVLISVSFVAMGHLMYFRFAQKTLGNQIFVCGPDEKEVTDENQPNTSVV
Briefly: Hepcidin Internalization Assay (J774). The following applies: Average (AVE) IC50 of multiple measurements; inhibition of TMR-hepcidin (25 nM) internalization into J774 cells. The assay is classed as cell-based. The procedure, abridged: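 Mouse J774 cells; Fpn inhibition read as reduced internalization of TMR-labelled hepcidin, imaged by fluorescence microscopy with Hoechst 33342 co-stain after fixation. IC50 from Sum(Mean) TMR signal fitted to three- or four-parameter log(inhibitor) vs. response, whichever fit better.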
The compound `COc1cccnc1CNC(=O)c1coc(CCNCCc2nc3cc4c(cc3n2CCOC2CCCCC2)OCCO4)n1` [Example 91, 2-(2-((2-(1-(2-(cyclohexyloxy)ethyl)-6,7-dihydro-1H-[1,4]dioxino[2′,3′:4,5]benzo[1,2-d]imidazol-2-yl)ethyl)amino)ethyl)-N-((3-methoxypyridin-2-yl)methyl)oxazole-4-carboxamide] yielded a half-inhibitory concentration (IC50) of 2 nM. This counts as single-digit nanomolar.
The compound `COc1cccc(-n2c(CCNCCc3nc(C(=O)NCc4ncccc4F)co3)nc3cc4c(cc32)OCCO4)c1` [Example 92, N-((3-fluoropyridin-2-yl)methyl)-2-(2-((2-(1-(3-methoxyphenyl)-6,7-dihydro-1 H-[1,4]dioxino[2′,3′:4,5]benzo[1,2-d]imidazol-2-yl)ethyl)amino)ethyl)oxazole-4-carboxamide] came in with an IC50 of 2 nM.
`COc1cccc(-n2c(CCNCCc3nc(C(=O)NCc4ncccc4OC)co3)nc3cc4c(cc32)OCCO4)c1` [Example 93, 2-(2-((2-(1-(3-methoxyphenyl)-6,7-dihydro-1 H-[1,4]dioxino[2′,3′:4,5]benzo[1,2-d]imidazol-2-yl)ethyl)amino)ethyl)-N-((3-methoxypyridin-2-yl)methyl)oxazole-4-carboxamide] displayed an IC50 of 3 nM. This IC50 is about 1.5-fold higher than that of the compound before.
In turn, `O=C(NCc1ncccc1F)c1coc(CCNCCc2nc3cc4c(cc3n2CCc2ncco2)OCCO4)n1` [Example 94, N-((3-fluoropyridin-2-yl)methyl)-2-(2-((2-(1-(2-(oxazol-2-yl)ethyl)-6,7-dihydro-1 H-[1,4]dioxino[2′,3′:4,5]benzo[1,2-d]imidazol-2-yl)ethyl)amino)ethyl)oxazole-4-carboxamide] showed an IC50 of 365 nM.
For `COc1cccnc1CNC(=O)c1coc(CCNCCc2nc3cc4c(cc3n2CCc2ncco2)OCCO4)n1` [Example 95, N-((3-methoxypyridin-2-yl)methyl)-2-(2-((2-(1-(2-(oxazol-2-yl)ethyl)-6,7-dihydro-1 H-[1,4]dioxino[2′,3′:4,5]benzo[1,2-d]imidazol-2-yl)ethyl)amino)ethyl)oxazole-4-carboxamide], it took 26 nM to reach half-maximal inhibition (IC50).
`COCCn1c(C2CN(CCc3nc(C(=O)NCc4ncccc4F)co3)C2)nc2ccccc21` [Example 96, N-((3-fluoropyridin-2-yl)methyl)-2-(2-(3-(1-(2-methoxyethyl)-1H-benzo[d]imidazol-2-yl)azetidin-1-yl)ethyl)oxazole-4-carboxamide] gave an IC50 of 223 nM.
`CN(C)CCn1c(C2CN(CCc3nc(C(=O)NCc4ncccc4F)co3)C2)nc2ccccc21` [Example 97, 2-(2-(3-(1-(2-(dimethylamino)ethyl)-1H-benzo[d]imidazol-2-yl)azetidin-1-yl)ethyl)-N-((3-fluoropyridin-2-yl)methyl)oxazole-4-carboxamide] returned an IC50 of 89 nM.

The target in another assay is T2, ferroportin (Fpn) (Homo sapiens, UniProt Q9NP59).
T2 construct: expressed in transfected cells; host or cells: HEK-293 cell line #354 (derivative of HEK-293 Tet-ON Advanced)
T2 sequence (Q9NP59 1-571): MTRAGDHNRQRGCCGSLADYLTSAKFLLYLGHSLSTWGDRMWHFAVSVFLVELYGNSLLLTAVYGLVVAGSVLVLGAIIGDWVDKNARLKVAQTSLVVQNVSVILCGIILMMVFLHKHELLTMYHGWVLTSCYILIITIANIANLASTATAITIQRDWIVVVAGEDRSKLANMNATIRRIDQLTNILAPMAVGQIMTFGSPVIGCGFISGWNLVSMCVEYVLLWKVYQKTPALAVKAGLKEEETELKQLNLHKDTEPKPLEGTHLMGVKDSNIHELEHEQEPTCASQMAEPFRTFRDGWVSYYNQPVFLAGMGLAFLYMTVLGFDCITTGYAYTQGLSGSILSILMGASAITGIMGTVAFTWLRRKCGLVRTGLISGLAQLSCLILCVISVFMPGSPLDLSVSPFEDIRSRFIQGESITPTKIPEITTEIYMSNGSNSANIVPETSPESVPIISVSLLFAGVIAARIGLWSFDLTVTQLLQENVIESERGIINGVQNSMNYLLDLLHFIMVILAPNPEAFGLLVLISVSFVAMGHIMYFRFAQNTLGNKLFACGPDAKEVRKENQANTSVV
Briefly: Inhibition of Ferroportin mediated Iron Export Activity in an Iron Response Assay (BLA reporter, HEK-293 cell line #354). In kind it is cell-based. To be noted: HEK-293 cell line #354, BLA reporter blue/green fluorescence ratio, n=37; read-out: EC50 of hepcidin in the iron response assay. From the text: Intracellular iron levels are indirectly measured in this assay by monitoring the activity of a beta-lactamase (BLA) reporter gene fused to the human ferritin promoter and the associated iron regulatory element (IRE) contained within the 5′ untranslated region of the ferritin mRNA. Expression of ferroportin (Fpn) in such a cell line leads to iron efflux and lower iron levels as reflected by lower activity of the reporter gene. On the other hand, inhibition of Fpn-mediated iron efflux results in elevated cellular iron levels which is detected as increased reporter gene activity.
Turning to `CC[C@H](C)[C@@H]1NC(=O)[C@@H](NC(=O)[C@@H](NC(=O)[C@@H]2CCCN2C(=O)[C@H](Cc2ccccc2)NC(=O)[C@H](Cc2c[nH]cn2)NC(=O)[C@@H](NC(=O)[C@@H](N)CC(=O)O)[C@@H](C)O)[C@@H](C)CC)CSSC[C@@H](C(=O)N[C@@H](CCCCN)C(=O)N[C@H](C(=O)O)[C@@H](C)O)NC(=O)[C@@H]2CSSC[C@@H]3NC(=O)[C@@H]4CSSC[C@H](NC(=O)[C@H](Cc5ccccc5)NC1=O)C(=O)N[C@@H](CSSC[C@H](NC(=O)[C@H](CCCCN)NC(=O)[C@H](CO)NC(=O)[C@H](CCCNC(=N)N)NC(=O)[C@H](Cc1c[nH]cn1)NC3=O)C(=O)NCC(=O)N[C@@H](CCSC)C(=O)N2)C(=O)NCC(=O)N4` [hepcidin], the EC50 was around 96 nM.
